For this assay, the system named is MOG35-55-induced experimental autoimmune encephalomyelitis (EAE). The assay can be described thus: MOG35-55-induced experimental autoimmune encephalomyelitis (EAE) in C57BL/6 mice. The following applies: male C57BL/6 mice. The assay is classed as in vivo. Here is the method:
Assessment and Comparison of the Efficacy of Compounds of the Invention and DMF (Reference) in MOG35-55-Induced Experimental Autoimmune Encephalomyelitis (EAE) in C57BL/6 Mice
male C57BL/6 mice, 12 weeks old; 10 animals per treatment group;
Day 1—subcutaneous injection of MOG35-55, suspended in complete Freund's adjuvans and intraperitoneal injection of pertussis toxin.
Day 3—intraperitoneal injection of pertussis toxin.
Dimethylfumarate and test substances or vehicle only were administered via oral and intravenous route.
For oral administration, test substances were dissolved or suspended in 0.5% hydroxyethylcellulose (dissolved in 50 mM potassium dihydrogenphosphate, pH 5.0). Drug concentration in dose formulations: 11.54 mM;
Dose volume: 10 ml/kg body weight;
Start of treatment: Day 3
For intravenous administration, stock solutions were prepared in DMSO and serially diluted with phosphate buffered saline.
Observations were recorded on day 2, 4, 6, 8, 10, 12, 14 and 16.
Clinical score: grade 0-10; 0 (=no impairments), 1 (normal movement; limp tail: proximal 2/3 of the tail is limp and droopy), 2 (normal movement; whole tail is limp; 3 (wobbly walk; absent righting reflex), 4 (gait ataxia), 5 (milad paraparesis), 6 (moderate paraparesis), 7 (severe paraparesis or paraplegia), 8 (tetraparesis), 9 (moribund), 10 (death).

With `COC(=O)/C=C/C(=O)OCCN1CCSCC1` [Ia], the body weight result (FIG. 4) is “substantially maintained”. The clinical score result (grade 0-10, FIG. 3, with reference to DMF) is “reduced with reference to DMF”.

For the origin of these results see patent US20160214948A1, “PRODRUGS OF MONOMETHYL FUMARATE (MMF)” (RATIOPHARM GMBH, priority 2013, published 2016).
